Results as given in ChEMBL document CHEMBL5360538, “Recent updates on 1,2,3-triazole-containing hybrids with in vivo therapeutic potential against cancers: A mini-review” (Eur J Med Chem, 2023).
One block for each compound: values may come before it.

Legend:
A549 [1] = assay: Antitumor activity against human A549 cells xenografted in nude mouse model assessed as inhibition of tumor growth at 1.0 mg/kg, sc administered every three or four days for 4 weeks relative to control; type: functional; settings: A549, 672 h
A549 [2] = assay: Antiproliferative activity against human A549 cells assessed as inhibition of cell growth incubated for 48 hrs by MTT assay; type: functional, cell-based; settings: A549, 48 h
NCI-H460 = assay: Antiproliferative activity against human NCI-H460 cells assessed as inhibition of cell growth incubated for 48 hrs by MTT assay; type: functional, cell-based; settings: NCI-H460, 48 h
Ehrlich [3] = assay: Antitumor activity against mouse EAC cells implanted in Swiss albino mouse model assessed as increase in life span at 10 mg/kg, ip administered each day for 9 days and measured after 14 days relative to control; type: functional; settings: time 14 day
Ehrlich [4] = assay: Antitumor activity against mouse EAC cells implanted in Swiss albino mouse model assessed as tumor growth inhibition at 10 mg/kg, ip administered each day for 9 days and measured after 14 days relative to control; type: functional; settings: 336 h, time 14 day
MCF7 [5] = assay: Antiproliferative activity against human MCF7 cells assessed as inhibition of cell growth incubated for 48 hrs by MTT assay; type: functional, cell-based; settings: MCF7, 48 h
LA7 [6] = assay: Antitumor activity against rat LA7 cells xenografted in mouse assessed as inhibition of tumor growth at 5 mg/kg, po administered daily for 21 days relative to control; type: functional; settings: LA7, 504 h, time 21 day
LA7 [7] = assay: Antiproliferative activity against rat LA7 cells assessed as inhibition of cell growth incubated for 48 hrs by MTT assay; type: functional, cell-based; settings: LA7, 48 h
MGC-803 = assay: Antitumor activity against human MGC-803 cells xenografted in SCID mouse model assessed as inhibition of tumor growth at 50 mg/kg, po relative to control; type: functional
A549 [8] = assay: Antiproliferative activity against human A549 cells assessed as inhibition of cell growth incubated for 72 hrs by MTT assay; type: functional, cell-based; settings: A549, 72 h
HCT-116 = assay: Antiproliferative activity against human HCT-116 cells assessed as inhibition of cell growth incubated for 72 hrs by MTT assay; type: functional, cell-based; settings: HCT-116, 72 h
U2OS = assay: Antiproliferative activity against human U2OS cells assessed as inhibition of cell growth incubated for 72 hrs by MTT assay; type: functional, cell-based
A549/TR = assay: Antiproliferative activity against taxol-resistant human A549/Taxol cells assessed as inhibition of cell growth incubated for 72 hrs by MTT assay; type: functional, cell-based
[9] = Antiproliferative activity against cisplatin-resistant human A549/DDP cells assessed as inhibition of cell growth incubated for 72 hrs by MTT assay; type: functional, cell-based
A549 [10] = assay: Antitumor activity against human A549 cells xenografted in Kunming mouse model assessed as inhibition of tumor growth at 20 mg/kg, iv administered twice daily for 2 weeks relative to control; type: functional; settings: A549, 336 h
MDA-MB-231 [11] = assay: Antiproliferative activity against human MDA-MB-231 cells assessed as inhibition of cell growth incubated for 48 hrs by MTT assay; type: functional, cell-based; settings: MDA-MB-231, 48 h
Ehrlich [12] = assay: Antitumor activity against mouse EAC cells implanted in Swiss albino mouse assessed as tumor growth inhibition at 5.0 mg/kg, ip administered alternate days for 10 days relative to control; type: functional; settings: 240 h, time 10 day, read-out: TGI
KYSE-510 = assay: Potency index, ratio of 5-fluorouracil IC50 to test compound IC50 for antiproliferative activity against human KYSE-510 cells assessed as inhibition of cell growth incubated for 72 hrs by MTT assay; type: functional
TE-1 = assay: Potency index, ratio of 5-fluorouracil IC50 to test compound IC50 for antiproliferative activity against human TE-1 cells assessed as inhibition of cell growth incubated for 72 hrs by MTT assay; type: functional
ECa-109 cell line [13] = assay: Potency index, ratio of 5-fluorouracil IC50 to test compound IC50 for antiproliferative activity against human EC109 cells assessed as inhibition of cell growth incubated for 72 hrs by MTT assay; type: functional
KYSE-150 cell line [14] = assay: Antiproliferative activity against human KYSE-150 cells assessed as inhibition of cell growth incubated for 72 hrs by MTT assay; type: functional, cell-based; settings: KYSE-150, 72 h, pooled result: one value given for 5 cell lines, strains, targets or settings
KYSE-270 = assay: Potency index, ratio of 5-fluorouracil IC50 to test compound IC50 for antiproliferative activity against human KYSE-270 cells assessed as inhibition of cell growth incubated for 72 hrs by MTT assay; type: functional
KYSE-150 cell line [15] = assay: Potency index, ratio of 5-fluorouracil IC50 to test compound IC50 for antiproliferative activity against human KYSE-150 cells assessed as inhibition of cell growth incubated for 72 hrs by MTT assay; type: functional
ECa-109 cell line [16] = assay: Antitumor activity against human EC109 cells xenografted in BALB/c nude mouse model assessed as inhibition of tumor growth at 60 mg/kg, po relative to control; type: functional
MDA-MB-231 [17] = assay: Antiproliferative activity against drug-sensitive human MDA-MB-231 cells assessed as inhibition of cell growth by MTT assay; type: functional, cell-based
SK-BR-3 = assay: Antiproliferative activity against drug-sensitive human SK-BR-3 cells assessed as inhibition of cell growth by MTT assay; type: functional, cell-based
MCF7 [18] = assay: Antiproliferative activity against drug-sensitive human MCF7 cells assessed as inhibition of cell growth by MTT assay; type: functional, cell-based
[19] = Antiproliferative activity against human Trastuzumab-resistant BT-474 cells assessed as inhibition of cell growth by MTT assay; type: functional, cell-based, Trastuzumab-resistant BT-474 cell
[20] = Plasma clearance in Albino mouse at 1.0 mg/kg, iv; type: ADME, organism-based
[21] = Antiproliferative activity against human Tamoxifen-resistant MCF7 cells assessed as inhibition of cell growth by MTT assay; type: functional, cell-based
BT-474 = assay: Antiproliferative activity against drug-sensitive human BT-474 cells assessed as inhibition of cell growth by MTT assay; type: functional, cell-based
[22] = Elimination half life in Albino mouse plasma at 1.0 mg/kg, iv; type: ADME, organism-based; settings: read-out: beta t1/2 (converted)
[23] = AUC(0 to t) in Albino mouse at 1.0 mg/kg, iv; type: ADME, organism-based; design: dose 1 mg/kg, route iv; settings: in vivo
MCF7 [24] = assay: Antitumor activity against human MCF7 cells xenografted in mouse assessed as tumor growth inhibition by measuring T/C ratio at 25 mg/kg, iv; type: functional
Caov-3 cell line = assay: Antiproliferative activity against human Caov-3 cells assessed as reduction in cell viability by MTT assay; type: functional, cell-based
OC-314 = assay: Antiproliferative activity against human OC-314 cells assessed as reduction in cell viability by MTT assay; type: functional, cell-based
OVCAR-8 [25] = assay: Antitumor activity against human OVCAR-8 cells xenografted in nude mouse assessed as inhibition of tumor growth at 100 mg/kg, IG administered daily for 21 days relative to control; type: functional; settings: OVCAR-8, po, 504 h, time 21 day
OVCAR-8 [26] = assay: Antiproliferative activity against human OVCAR-8 cells assessed as reduction in cell viability by MTT assay; type: functional, cell-based
SK-OV-3 = assay: Antiproliferative activity against human SK-OV-3 cells assessed as reduction in cell viability by MTT assay; type: functional, cell-based
KYSE-450 = assay: Antitumor activity against human KYSE-450 cells xenografted in nu/nu nude mouse model assessed as inhibition of tumor growth at 25 mg/kg, ip administered every day for 15 days relative to control; type: functional; settings: KYSE-450, 360 h, time 15 day
NCI-H1650 = assay: Antiproliferative activity against drug-sensitive human NCI-H1650 cells assessed as inhibition of cell growth incubated for 48 hrs by MTT assay; type: functional, cell-based; settings: NCI-H1650, 48 h, pooled result: one value given for 9 cell lines, strains, targets or settings
A549 [27] = assay: Antiproliferative activity against human A549 cells assessed as inhibition of cell growth incubated for 24 hrs by MTT assay; type: functional, cell-based; settings: A549, 24 h
animal or person = type: functional; settings: Mus musculus, Lewis lung carcinoma, 480 h, route ip, time 20 day
[28] = Antitumor activity against mouse Lewis lung carcinoma cells implanted in C57BL/6J mouse model assessed as inhibition of tumor growth at 5.0 mg/kg, ip administered alternate days for 20 days in presence of 5.0 mg/kg gefitinib relative to control; type: functional; settings: 480 h, time 20 day

SMILES: COc1ccc2c(c1)OCC(=O)N2Cc1cn(Cc2ccccc2)nn1
inhibition in vivo at 1 mg/kg (A549 [1]): 60%
IC50 (A549 [2]): < 8 µM
IC50 (NCI-H460): < 8 µM

SMILES: COc1ccc(-c2ccc3c(c2)OCC(=O)N3Cc2cn(-c3cc(Cl)cc(Cl)c3)nn2)cc1
Activity (Ehrlich [3]): 68.94%
inhibition in vivo at 10 mg/kg (Ehrlich [4]): 54%

SMILES: COc1ccc(-n2cc(CN3c4ccccc4Sc4ccccc43)nn2)c([N+](=O)[O-])c1
inhibition in vivo at 50 mg/kg (MGC-803): 70.1%

SMILES: NS(=O)(=O)NCCNC(=O)c1n[nH]nc1-c1ccc(F)c(F)c1
IC50 (MDA-MB-231 [11]): 77 nM
inhibition in vivo at 5 mg/kg (Ehrlich [12]): > 80%

SMILES: COc1cnc(Cn2cc(CNC(=O)c3c(F)c(F)c(F)c(F)c3F)nn2)c(OC)c1
Ratio IC50 (KYSE-510): 3.1
Ratio IC50 (TE-1): 3.1
Ratio IC50 (ECa-109 cell line [13]): 3.1
IC50 (KYSE-150 cell line [14]): 830 nM
Ratio IC50 (KYSE-270): 3.1
Ratio IC50 (KYSE-150 cell line [15]): 3.1
inhibition in vivo at 60 mg/kg (ECa-109 cell line [16]): 60%

Second part, led by results:

IC50 (MCF7 [5]): 2100 nM
SMILES: O=C1/C(=C/c2ccccc2F)CN(Cc2cn(Cc3ccc(F)cc3)nn2)C/C1=C\c1ccccc1F
inhibition in vivo at 5 mg/kg (LA7 [6]): 80%
IC50 (LA7 [7]): 3.1 µM

IC50 (A549 [8]): 280 nM
IC50 (HCT-116): 280 nM
IC50 (U2OS): 280 nM
IC50 (A549/TR): 280 nM
SMILES: CC(C)=CC[C@]12OC(C)(C)C3C[C@H](C=C4C(=O)c5c(OCc6cn(CCN7CCOCC7)nn6)cccc5OC431)C2=O
IC50 [9]: 280 nM
inhibition in vivo at 20 mg/kg (A549 [10]): 71.3%

IC50 (MDA-MB-231 [17]): 153 nM
IC50 (SK-BR-3): 153 nM
IC50 (MCF7 [18]): 153 nM
clearance [20]: 15.4 mL/min/kg
IC50 (BT-474): 153 nM
half-life [22]: 486 min
AUC(0-t) [23]: 232 ng·h/mL
SMILES: O=C1CCCC2=C1C(c1cn(-c3ccc(Cl)cc3)nn1)C1=C(CCCC1=O)N2
IC50 [19]: 153 nM
IC50 [21]: 153 nM
T/C (MCF7 [24]): 0.2

IC50 (OVCAR-8 [26]): 540 nM
IC50 (SK-OV-3): 540 nM
SMILES: O=S(=O)(NCc1cn(Cc2cccc(Oc3ccccc3)c2)nn1)c1ccc(F)cc1
IC50 (Caov-3 cell line): 540 nM
IC50 (OC-314): 540 nM
inhibition in vivo at 100 mg/kg (OVCAR-8 [25]): 61.8%

IC50 (NCI-H1650): 3.26 µM
SMILES: FC(F)(F)c1ccc(-n2cc(-c3cccc(Nc4ncnc5cc6c(cc45)OCCOCCOCCO6)c3)nn2)cc1
inhibition in vivo at 25 mg/kg (KYSE-450): 25%

IC50 (A549 [27]): 2 nM
SMILES: COc1ccc(-c2cn(CC3(C)C=Cc4cc(N)ccc4O3)nn2)cc1 (centres undefined)
inhibition in vivo at 5 mg/kg (animal or person): 50%
inhibition in vivo at 5 mg/kg [28]: 80%
